# Laboratory results published in PMC10093837, “Rutin Concentration and Characterization of Rutinosidase in Perennial Buckwheat (Fagopyrum cymosum) and Its Application in Foods” (Foods, 2023).
# Test system: T1, FC rutinosidase
# T1 construct: gene f3g; native, purified from dehulled seeds (Q-Sepharose, Superdex 200, Mono Q twice); 58,400 +/- 2700 Da by gel filtration; single isozyme in native-PAGE
# Experiment: UPLC of released quercetin; Lineweaver-Burk
# Assay type: biochemical, Fagopyrum cymosum
# Conditions: 50 mM acetate-LiOH pH 5.0, 20% (v/v) methanol, 25 °C (standard assay)
# Excerpt: UPLC of released quercetin; Lineweaver-Burk on FC rutinosidase
smiles,measurement,value
C[C@@H]1O[C@@H](OC[C@H]2O[C@@H](Oc3c(-c4ccc(O)c(O)c4)oc4cc(O)cc(O)c4c3=O)[C@H](O)[C@@H](O)[C@@H]2O)[C@H](O)[C@H](O)[C@H]1O [rutin],Km,367 ± 23.5 µM
